Laboratory results: patent US8623340B2, “Omega-cyclohexylalkan-1-oles and use thereof as antimicrobial actives to combat body odor” (Symrise AG, priority 2009, dated 2014)
Values after ≈ are worked out from the molar mass of the structure shown.

Assays:
Assay type in all cases: cell-based
[1] = system: Staphylococcus epidermidis (ATCC 12228); experiment: quantitative suspension test
[2] = system: Corynebacterium xerosis (DSM 20743); experiment: quantitative suspension test
[3] = system: Corynebacterium xerosis (DSM 20743, ATCC 373) biofilm; experiment: Biofilm, mid-log assay on pre-existing biofilm (crystal violet staining CV580); settings: 12.5 μg
Excerpt: The recognition that the compounds of formula (I) are also very particularly suitable for either inhibition of initial biofilm formation and stagnation or even detachment of pre-existing biofilms is based on a series of investigations relating to the particularly relevant microorganism Corynebacterium xerosis. The antimicrobial action of the compounds of formula (I) on biofilms is hereby detected with the assistance of a staining method. Crystal violet staining is used to quantify amount of biofilm in the presence and absence of an antimicrobial active ingredient. A possible inhibitory action of the test substance used is identified from the staining profile. […] Biofilm formation can be analyzed by crystal violet staining with subsequent spectroscopic quantitation at 580 nm (CV580). […] Optical density OD580 was then measured followed by crystal violet staining and spectroscopic quantitation of the biofilm at 580 nm (CV580). Mid-log time point was determined by cultivating untreated C. xerosis cells on separate control plates. CV580 crystal violet staining data of untreated control cells at mid-log were recorded. […] CV580 of untreated control samples was also recorded. […] Thus, untreated control cells will reach a value of 200%, corresponding to twice the exactly determined mid-log time point (half-maximal values for CV580; which was set 100%). […]

[4] = system: Brevibacterium epidermidis (ATCC 35514); experiment: quantitative suspension test
[5] = system: Corynebacterium xerosis (DSM 20743); experiment: MIC determination by turbidimetric growth curves; settings: 16 h, 37° C., turbidimetry 620 nm
Excerpt: (§1) The observation that the compounds of formula (I) are very particularly suitable for combating microorganisms which are responsible for body odor is based on a series of investigations relating to the particularly relevant microorganisms Staphylococcus epidermidis Corynebacterium xerosis, and Brevibacterium epidermidis. The antimicrobial action of the compounds of formula (I) is here detected with the assistance of a turbidimetric measurement method. Turbidity measurement is used to establish growth curves for the particular microorganism in the presence and absence of an antimicrobial active ingredient. A possible inhibitory action of the test substance used is identified from the profile of the growth curves. Solutions with saline or DMSO for 100% growth are prepared as a negative control. The active substances to be investigated are first diluted in DMSO in reaction vessels. Dilution is carried out in accordance with the concentration range to be tested and corresponds in each case to 100 times the concentration of the subsequent final concentration in the test Testing is usually begun with a final concentration of 2000 ppm (corresponding to 0.2 wt.-%) in the test. Growth curves at final concentrations of 1000 ppm, 500 ppm, 250 ppm, 125 ppm, 64 ppm, 32 ppm, 16 ppm and 8 ppm are subsequently determined. The bacterial cultures are then incubated in the presence of the various final concentrations of antimicrobial active ingredient for 16 h (incubation temperature: 37° C.). The absorption values (wavelength 620 nm; measurement interval: 20 minutes) obtained over the 16 hour period of turbidimetric measurement are recorded and exported into the spreadsheet program MS Excel. Means from in each case three parallel batches are calculated and used as the basis for establishing growth curves. The curves of the individual test sample concentrations are compared with those for the negative controls and the MIC value (minimum inhibitory concentration) is determined. The MIC value is the concentration at which no further growth is observable by turbidimetry.

[6] = system: Staphylococcus epidermidis (ATCC 12228); experiment: MIC determination by turbidimetric growth curves; settings: ATCC12228, 16 h, 37° C., turbidimetry 620 nm, read-out: MIC (complete inhibition of growth, usage concentration)
Excerpt: as §1

[7] = system: Brevibacterium epidermidis (ATCC 35514); experiment: MIC determination by turbidimetric growth curves; settings: 16 h, 37° C., turbidimetry 620 nm
Excerpt: as §1

[8] = system: Corynebacterium xerosis (DSM 20743, ATCC 373) biofilm; experiment: Biofilm formation, classic assay (crystal violet staining CV580); settings: 12.5 μg/ml
Excerpt: The recognition that the compounds of formula (I) are also very particularly suitable for either inhibition of initial biofilm formation and stagnation or even detachment of pre-existing biofilms is based on a series of investigations relating to the particularly relevant microorganism Corynebacterium xerosis. The antimicrobial action of the compounds of formula (I) on biofilms is hereby detected with the assistance of a staining method. Crystal violet staining is used to quantify amount of biofilm in the presence and absence of an antimicrobial active ingredient. A possible inhibitory action of the test substance used is identified from the staining profile. Corynebacterium xerosis can adhere to artificial laboratory surfaces and contribute to biofilm formation much the same way as it can do on skin in vivo. Therefore we furtheron established a test system to evaluate the influence of antimicrobial active compounds of formula (I) on Corynebacterium xerosis forming a biofilm or already residing in a biofilm. […] Biofilm formation can be analyzed by crystal violet staining with subsequent spectroscopic quantitation at 580 nm (CV580). […] Anti-microbial effects of test compounds on biofilm formation was determined by CV580 crystal violet staining 18-24 hours after inoculation and several washing steps that are needed to separate planctonic grown microorganisms.

MIC [6] | SMILES | antimicrobial activity in quantitative suspension test [1] | antimicrobial activity in quantitative suspension test [2] | biofilm observed compared to the untreated control (set to 200%; mid-log value 100%) [3] | antimicrobial activity in quantitative suspension test [4] | concentration establishing inhibition of the growth [5] | concentration establishing inhibition of the growth [7] | biofilm formation inhibition [8]
16 µg/mL (≈ 75.3 µM) | CCCC(CO)CCCC1CCCCC1 (stereo not shown) [5-cyclohexyl-2-n-propyl-pentanol] | confirm the antimicrobial activity | confirm the antimicrobial activity | 100% | confirm the antimicrobial activity | below 0.2 wt. % | below 0.2 wt. % | 65%
64 µg/mL (≈ 347 µM) | CC(CO)CCCC1CCCCC1 (stereo not shown) [5-cyclohexyl-2-methyl-pentanol] | confirm the antimicrobial activity | confirm the antimicrobial activity | 53% | confirm the antimicrobial activity | below 0.2 wt. % | below 0.2 wt. % | 92%
